Test results published in publication PMC6934184, “Selective DNA-PKcs inhibition extends the therapeutic index of localized radiotherapy and chemotherapy” (The Journal of Clinical Investigation, 2019).

Target: T1, CAMK2A (CaMKII alpha) (Homo sapiens, UniProt Q9UQM7)
T1 construct: purchased Thermo Fisher Scientific (Life Technologies) SelectScreen
Experiment: SelectScreen Z'LYTE
Assay type: biochemical
Method in brief: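 NU5455 was profiled across the SelectScreen Broad panel of kinase activity and binding assays. Z'LYTE reactions such as CSF1R ran at apparent Km ATP, while the Adapta CAMK1 assay used ATP listed as 10. Values are given as percent.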

T1 sequence (Q9UQM7 whole entry): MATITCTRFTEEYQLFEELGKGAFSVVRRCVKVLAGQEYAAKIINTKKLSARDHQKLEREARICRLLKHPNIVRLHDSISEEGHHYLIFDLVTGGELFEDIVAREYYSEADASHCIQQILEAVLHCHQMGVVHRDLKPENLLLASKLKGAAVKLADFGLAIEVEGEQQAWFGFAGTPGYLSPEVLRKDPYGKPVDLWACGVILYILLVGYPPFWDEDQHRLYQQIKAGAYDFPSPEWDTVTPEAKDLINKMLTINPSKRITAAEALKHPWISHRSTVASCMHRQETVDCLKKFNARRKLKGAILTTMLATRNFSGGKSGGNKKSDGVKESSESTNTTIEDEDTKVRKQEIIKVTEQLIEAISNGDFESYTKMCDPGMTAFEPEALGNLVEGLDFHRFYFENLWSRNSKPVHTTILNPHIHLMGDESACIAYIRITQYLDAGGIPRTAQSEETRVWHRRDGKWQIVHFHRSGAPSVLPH

CN(C(=O)CN1CCOCC1)c1ccc2sc3c(-c4cccc5c(=O)cc(N6CC7CCC(C6)O7)oc45)cccc3c2c1 [NU5455]
inhibition at 1 µM: -0.6%
